How the values were obtained:
[1] = tested on: Pyricularia oryzae Carvara KA301; format: in vivo; conditions: for C. V. (%) RCB: 50 ppm, control value, rice blast; for C. V. (%) Fungicidal Activities against RCB at 10 ppm / C. V. (%) Fungicidal Activities against RCB at 10 ppm (TABLE 6): sprayed on Nakdong rice plant, control value from lesion area
[2] = tested on: Phytophthora infestans; format: in vivo; conditions: 50 ppm; control value, tomato late blight
[3] = tested on: Puccinia recondita; test: Fungicidal activity against wheat leaf rust (WLR) disease; format: in vivo; conditions: for C. V. (%) WLR: 50 ppm, control value, wheat leaf rust; for C. V. (%), Fungicidal Activities against WLB at 10 ppm: Table 8 (Test Example 5)
[4] = tested on: Botrytis cinerae; test: Fungicidal activity against cucumber gray mold rot (CGM) disease; format: in vivo; conditions: 50 ppm, control value
Experimental: Botrytis cinerae, which was isolated from cucumber infected thereby, was inoculated on a PDA agar medium and cultured under a 12L/12D cycle at 25° C. for 15 days to form spore. The spores were scraped, filtered through a gauze and then suspended in potato dextrose liquid medium at a concentration of 1×10^6 spore/ml. The spore suspension was sprayed on a cucumber plant having one leaf. The cucumber plant was held in a humidified room at 20° C. for 3 days. L.A. on a leaf was measured to calculate an C.V.

[5] = tested on: Rhizoctonia solani AG-1; test: Fungicidal activity against rice sheath blight (RSB) disease; conditions: 50 ppm, control value
Experimental: 50 ml of the resulting solution was sprayed on leaves of a host plant. The plant was kept at room temperature for 24 hours to let the solvent evaporate, and then, a pathogenic fungus was inoculated thereonto. The plant was held in a humidity chamber for 24 hours, transferred to an plant growth room kept at 20 to 27° C. and a relative humidity of 60 to 80% and kept to induce disease. Subsequently, the lesion area(L.A.) attacked by the pathogenic fungus was measured according to a method of Cho(Cho, K. Y., Search Report by Korea Research Institute of Chemical Technology (1989))”. This procedure was repeated twice for each test. 10% Acetone solution containing 250 ppm of Tween-20 was used as a control.
The fungicidal activity of the compound of the present invention is repressed by a control value (C.V.) calculated as; [formula]
Rhizoctonia solani AG-1 was cultured on a PDA medium(potato 200 g, dextrose 20 g, agar 20 g and distilled water 1 l) for 3 days and the agar disc (diameter 0.6 cm) was inoculated and cultured on sterilized wheat bran medium in a 1 l bottle at 26 to 28° C. for 7 days. A mycelial mass was ground using a homogenizer, inoculated uniformly on soil of a pot wherein a Nakdong rice plant having 2 or 3 leaves and an height of 5 cm grew, and kept in humidity polyvinyl chamber for 5 days to induce RSB. L.A. on a leaf sheath was measured to calculate an C.V.

[6] = tested on: Erysiphae graminis; test: Fungicidal activity against barley powdery mildew (BPM) disease; format: in vivo; conditions: for C. V. (%) BPM: 50 ppm, control value, barley powdery mildew; for C. V. (%), Fungicidal activities against TLB at 10 ppm: Table 9 (Test Example 6)
Experimental: Erysiphae graminis was subcultured on a wheat plant in a laboratory. 15 g of barley seeds was sowed in a pot (diameter 6.5 cm) and cultured in a greenhouse for 7 days to obtain a barley plant having only a primary leaf. The barley plant was inoculated with spores by shaking thereover another plant infected by BPM. The inoculated barley plant was cultured in an incubator maintained at a temperature of 22 to 24° C. and a relative humidity of 50% for 7 days to induce BPM. L.A. on the leaf was measured to calculate an C.V.

SMILES	C. V. (%) RCB [1] [%]	C. V. (%) TLB [2] [%]	C. V. (%) WLR [3] [%]	C. V. (%) CGM [4] [%]	C. V. (%) RSB [5] [%]	C. V. (%) BPM [6] [%]	C. V. (%), Fungicidal activities against TLB at 10 ppm [6] [%]	C. V. (%) Fungicidal Activities against RCB at 10 ppm [1] [%]	C. V. (%) Fungicidal Activities against RCB at 10 ppm (TABLE 6) [1] [%]	C. V. (%), Fungicidal Activities against WLB at 10 ppm [3] [%]
CNC(=O)C(=COC)c1ccccc1COc1cccc(OC(F)=Cc2cccc(OC)c2)c1 [Compound 26]	20	55	70	0	35	88	–	–	–	–
CON=C(C(=O)OC)c1ccccc1COc1cccc(OC(F)=Cc2cccc(OC)c2)c1 [Compound 27]	100	80	86	0	90	96	97	–	–	–
COC(=O)C(=CSC)c1ccccc1COc1cccc(OC(F)=Cc2cccc(OC)c2)c1 [Compound 28]	93	73	91	21	70	97	–	–	–	–
COC=C(C(=O)OC)c1ccccc1COc1cccc(OC(F)=Cc2ccc(OC)cc2)c1 [Compound 29]	93	56	100	28	90	99	90	92	92	99
CNC(=O)C(=COC)c1ccccc1COc1cccc(OC(F)=Cc2ccc(OC)cc2)c1 [Compound 30]	93	6	0	28	5	16	–	–	–	–
CON=C(C(=O)OC)c1ccccc1COc1cccc(OC(F)=Cc2ccc(OC)cc2)c1 [Compound 31]	93	84	93	0	30	50	–	–	–	–
COC=C(C(=O)OC)c1ccccc1COc1cccc(OC(F)=Cc2ccc(Oc3ccccc3)cc2)c1 [Compound 32]	30	24	88	20	30	90	–	–	–	–
CON=C(C(=O)OC)c1ccccc1COc1cccc(OC(F)=Cc2ccc(Oc3ccccc3)cc2)c1 [Compound 33]	20	10	83	20	5	94	–	–	–	–
COC=C(C(=O)OC)c1ccccc1COc1cccc(OC(F)=Cc2cccc(F)c2)c1 [Compound 34]	99	75	98	0	95	100	100	100	100	100
CNC(=O)C(=COC)c1ccccc1COc1cccc(OC(F)=Cc2cccc(F)c2)c1 [Compound 35]	15	35	40	35	30	58	–	–	–	–
COC=C(C(=O)OC)c1ccccc1COc1cccc(OC(F)=Cc2ccc(F)cc2)c1 [Compound 36]	100	66	100	0	95	99	100	94	94	100
COC=C(C(=O)OC)c1ccccc1COc1cccc(OC(F)=Cc2ccc(Cl)cc2)c1 [Compound 37]	95	93	98	58	45	98	100	100	100	97
CNC(=O)C(=COC)c1ccccc1COc1cccc(OC(F)=Cc2ccc(Cl)cc2)c1 [Compound 38]	33	33	0	15	5	8	–	–	–	–
CON=C(C(=O)OC)c1ccccc1COc1cccc(OC(F)=Cc2ccc(Cl)cc2)c1 [Compound 39]	100	80	86	15	90	96	95	–	–	–
COC(=O)C(=CSC)c1ccccc1COc1cccc(OC(F)=Cc2ccc(Cl)cc2)c1 [Compound 40]	73	33	83	9	70	93	–	–	–	–
CO/C=C(/C(=O)OC)c1ccccc1COc1cccc(OC(F)=C(c2ccccc2)C(F)(F)F)c1 [Compound 45, methyl (2E)-3-methoxy-2-{2′-{3′-(2′″-fluoro-1′″-trifluoromethylstyryl)-2′″-oxy}phenoxymethyl}phenyl-2-propenoate]	90	0	100	0	94	100	100	90	90	100
CNC(=O)/C(=C/OC)c1ccccc1COc1cccc(OC(F)=C(c2ccccc2)C(F)(F)F)c1 [Compound 46, (2E)-N-methyl-3-methoxy-2-{2′-{3″-(2′″-fluoro-1′″-trifluoromethylstyryl)-2′″-oxy}phenoxymethyl}phenyl-2-propenoamide]	0	11	53	27	20	0	–	–	–	–
CON=C(C(=O)OC)c1ccccc1COc1cccc(OC(F)=C(c2ccccc2)C(F)(F)F)c1 [Compound 47]	96	64	86	26	90	98	98	–	–	–
CNC(=O)C(=NOC)c1ccccc1COc1cccc(OC(F)=C(c2ccccc2)C(F)(F)F)c1 [Compound 48]	97	70	100	28	45	98	100	100	100	100
